Measurements published in ChEMBL document CHEMBL5715954, “Silencing c-Myc translation as a therapeutic strategy through targeting PI3Kδ and CK1ε in hematological malignancies” (Blood, 2017).
The source made the active and inactive calls. The calls are words filed in the database; no cut-off is given here.

Columns and labels:
[1] = molecular target: T1, mTORC1 (Homo sapiens) (UniProt P42345+Q8N122+Q9BVC4); experiment: Inhibition of mTORC1 in human LY10 cells assessed as reduction in 4E-BP1 phosphorylation at 3 uM measured after 24 hrs in presence of bortezomib by Western blot analysis; type: cell-based
T1 sequence (Q8N122 whole entry, looked up, other chains not shown): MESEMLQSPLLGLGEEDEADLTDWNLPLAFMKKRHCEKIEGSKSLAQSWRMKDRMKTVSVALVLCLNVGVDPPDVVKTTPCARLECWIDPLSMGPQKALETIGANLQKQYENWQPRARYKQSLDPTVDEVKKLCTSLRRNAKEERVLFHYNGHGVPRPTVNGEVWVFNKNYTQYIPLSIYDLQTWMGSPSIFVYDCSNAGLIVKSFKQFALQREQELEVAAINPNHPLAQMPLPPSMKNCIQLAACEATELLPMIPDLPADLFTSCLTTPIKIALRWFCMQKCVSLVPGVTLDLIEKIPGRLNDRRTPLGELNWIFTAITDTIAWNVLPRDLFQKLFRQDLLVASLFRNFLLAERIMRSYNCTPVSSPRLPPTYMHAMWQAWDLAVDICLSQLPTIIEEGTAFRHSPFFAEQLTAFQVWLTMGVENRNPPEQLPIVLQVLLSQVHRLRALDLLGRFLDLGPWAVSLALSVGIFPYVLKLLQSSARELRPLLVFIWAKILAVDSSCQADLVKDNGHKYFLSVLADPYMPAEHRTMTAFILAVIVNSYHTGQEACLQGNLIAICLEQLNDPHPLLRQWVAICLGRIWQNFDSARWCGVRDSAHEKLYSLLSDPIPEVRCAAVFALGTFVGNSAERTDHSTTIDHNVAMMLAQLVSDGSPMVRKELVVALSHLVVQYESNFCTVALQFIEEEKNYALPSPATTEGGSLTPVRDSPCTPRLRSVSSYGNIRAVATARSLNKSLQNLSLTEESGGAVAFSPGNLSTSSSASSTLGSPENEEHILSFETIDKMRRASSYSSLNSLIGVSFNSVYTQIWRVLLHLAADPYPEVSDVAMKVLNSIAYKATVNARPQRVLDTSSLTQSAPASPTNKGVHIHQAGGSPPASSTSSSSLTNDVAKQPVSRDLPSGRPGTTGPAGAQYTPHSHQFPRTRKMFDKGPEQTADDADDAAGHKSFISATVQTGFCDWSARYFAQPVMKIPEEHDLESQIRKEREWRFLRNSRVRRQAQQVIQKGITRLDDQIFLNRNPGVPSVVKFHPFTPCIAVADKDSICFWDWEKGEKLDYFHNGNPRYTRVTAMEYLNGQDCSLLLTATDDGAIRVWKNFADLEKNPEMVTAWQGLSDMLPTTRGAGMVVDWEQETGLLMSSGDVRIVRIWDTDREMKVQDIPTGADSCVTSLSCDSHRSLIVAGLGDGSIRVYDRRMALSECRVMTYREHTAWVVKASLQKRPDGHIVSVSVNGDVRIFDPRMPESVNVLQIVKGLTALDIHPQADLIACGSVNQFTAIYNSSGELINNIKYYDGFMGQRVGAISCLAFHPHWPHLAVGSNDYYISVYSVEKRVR
T1 sequence (Q9BVC4 whole entry, looked up, other chains not shown): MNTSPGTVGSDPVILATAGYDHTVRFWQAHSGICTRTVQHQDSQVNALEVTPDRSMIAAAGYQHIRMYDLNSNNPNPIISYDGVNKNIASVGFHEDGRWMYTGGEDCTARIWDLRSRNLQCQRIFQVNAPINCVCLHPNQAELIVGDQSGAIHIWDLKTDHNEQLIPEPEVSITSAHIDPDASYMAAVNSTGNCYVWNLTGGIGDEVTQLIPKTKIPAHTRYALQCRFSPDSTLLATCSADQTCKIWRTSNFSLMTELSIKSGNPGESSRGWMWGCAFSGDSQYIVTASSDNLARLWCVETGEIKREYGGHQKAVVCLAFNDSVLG

[2] = molecular target: Myc proto-oncogene protein (Homo sapiens) (UniProt P01106); experiment: Inhibition of c-Myc in human LY10 cells assessed as reduction in eIF4B expression at 3 uM incubated for 24 hrs in presence of bortezomib by Western blot analysis; type: cell-based
Sequence of Myc proto-oncogene protein (Homo sapiens) (P01106 whole entry, canonical isoform): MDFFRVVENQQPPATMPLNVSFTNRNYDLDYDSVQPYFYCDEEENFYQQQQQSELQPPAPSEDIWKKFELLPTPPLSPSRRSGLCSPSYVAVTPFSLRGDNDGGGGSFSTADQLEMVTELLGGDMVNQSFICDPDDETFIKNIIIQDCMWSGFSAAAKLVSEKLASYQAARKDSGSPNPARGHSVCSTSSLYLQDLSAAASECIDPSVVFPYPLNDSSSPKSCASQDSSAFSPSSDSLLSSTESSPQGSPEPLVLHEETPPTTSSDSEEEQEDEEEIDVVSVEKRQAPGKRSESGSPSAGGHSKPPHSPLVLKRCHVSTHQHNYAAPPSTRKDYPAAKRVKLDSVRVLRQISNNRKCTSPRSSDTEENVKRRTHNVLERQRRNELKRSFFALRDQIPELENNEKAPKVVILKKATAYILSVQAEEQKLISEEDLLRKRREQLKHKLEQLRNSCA

[3] = molecular target: T2, Casein kinase I isoform epsilon (Homo sapiens, UniProt P49674); experiment: Inhibition of CK1epsilon in human LY7 cells assessed as reduction in CK1epsilon autophosphorylation at 25 uM preincubated for 1 hr followed by addition of PP2A inhibitor calyculin A and measured after 15 to 60 mins by Western blot analysis; type: cell-based; conditions: time lower 75.0 min, time upper […]
Target sequence in this assay (P49674 whole entry, looked up, canonical isoform): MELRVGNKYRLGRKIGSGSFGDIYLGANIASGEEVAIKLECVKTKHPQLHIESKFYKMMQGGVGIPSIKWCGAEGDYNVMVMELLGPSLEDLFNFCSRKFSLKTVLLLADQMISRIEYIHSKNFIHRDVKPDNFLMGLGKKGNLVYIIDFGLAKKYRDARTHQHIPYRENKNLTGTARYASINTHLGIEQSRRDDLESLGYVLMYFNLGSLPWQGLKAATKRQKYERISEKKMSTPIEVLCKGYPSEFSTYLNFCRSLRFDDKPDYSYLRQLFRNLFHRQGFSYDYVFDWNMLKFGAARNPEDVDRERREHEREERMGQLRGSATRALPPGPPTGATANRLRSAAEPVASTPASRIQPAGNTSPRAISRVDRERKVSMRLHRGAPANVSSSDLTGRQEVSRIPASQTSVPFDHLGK

[4] = Cytotoxicity against human PBMC assessed as reduction in cell viability at 2.5 to 5 uM measured after 24 to 72 hrs in presence of carfilzomib by cell-titer glo assay; type: toxicity, cell-based; conditions: dose lower 2.5 µM, time lower 24 hrs, dose upper 5 µM, time upper 72 hrs
[5] = molecular target: T1, mTORC1 (Homo sapiens); experiment: Inhibition of mTORC1 in human OCILY7 cells transfected with empty vector assessed as reduction in endogenous c-Myc expression at 3 to 5 uM incubated for 24 hrs in presence of carfilzomib by Western blot analysis; type: cell-based; conditions: dose 3-5 µM
[6] = molecular target: Myc proto-oncogene protein (Homo sapiens) (UniProt P01106); experiment: Inhibition of c-Myc in human LY10 cells assessed as reduction in eIF4B expression at 3 uM incubated for 24 hrs in presence of carfilzomib by Western blot analysis; type: cell-based
[7] = molecular target: Myc proto-oncogene protein (Homo sapiens) (UniProt P01106); experiment: Inhibition of c-Myc in human LY7 cells assessed as reduction in E2F1 expression at 3 uM incubated for 24 hrs in presence of carfilzomib by Western blot analysis; type: cell-based
[8] = molecular target: T2, Casein kinase I isoform epsilon; experiment: Inhibition of recombinant human full-length N-terminal GST-tagged CK1epsilon expressed in baculovirus infected Sf9 insect cells using casein as substrate measured after 60 mins by ADP-glo kinase assay
Target sequence in this assay (P49674 whole entry, canonical isoform): as the sequence (P49674 whole entry, looked up, canonical isoform) above

Compound	inhibition [1]	inhibition [2]	inhibition [3]	Activity [4]	inhibition [5]	inhibition [6]	inhibition [7]	EC50 [8]
CC[C@H](Nc1ncnc2[nH]cnc12)c1nc2cccc(F)c2c(=O)n1-c1ccccc1	inactive	inactive	inactive	–	–	–	–	–
CC(C)Oc1ccc(-c2nn([C@@H](C)c3oc4ccc(F)cc4c(=O)c3-c3cccc(F)c3)c3ncnc(N)c23)cc1F [UMBRALISIB]	–	–	–	Non-Toxic	Active	Active	Active	6 µM
